17 compounds from ChEMBL document CHEMBL1909046, “DrugMatrix in vitro pharmacology data” can be followed below.

One experiment has as its target T1, B2 bradykinin receptor (Homo sapiens, UniProt P30411).
T1 sequence (P30411 whole entry): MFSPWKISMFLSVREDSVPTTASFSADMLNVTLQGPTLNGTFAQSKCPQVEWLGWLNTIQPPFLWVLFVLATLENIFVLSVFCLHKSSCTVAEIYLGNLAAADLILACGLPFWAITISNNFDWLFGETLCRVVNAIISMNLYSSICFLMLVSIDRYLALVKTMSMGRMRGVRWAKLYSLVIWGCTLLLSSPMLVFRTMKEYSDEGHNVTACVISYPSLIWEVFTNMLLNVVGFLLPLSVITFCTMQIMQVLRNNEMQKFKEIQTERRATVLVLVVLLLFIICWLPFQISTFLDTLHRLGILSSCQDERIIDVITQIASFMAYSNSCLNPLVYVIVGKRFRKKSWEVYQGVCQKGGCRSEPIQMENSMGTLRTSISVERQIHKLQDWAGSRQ
The class given is cell membranes, Membrane. Particulars: chem-1.

For experiment [1], the target named is T2, 3-hydroxy-3-methylglutaryl-coenzyme A reductase (Homo sapiens, UniProt P04035).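 Note: enzyme inhibition assay of HMG-CoA reductase using radiolabeled [14C]HMG-CoA as substrate.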
T2 sequence (P04035 whole entry): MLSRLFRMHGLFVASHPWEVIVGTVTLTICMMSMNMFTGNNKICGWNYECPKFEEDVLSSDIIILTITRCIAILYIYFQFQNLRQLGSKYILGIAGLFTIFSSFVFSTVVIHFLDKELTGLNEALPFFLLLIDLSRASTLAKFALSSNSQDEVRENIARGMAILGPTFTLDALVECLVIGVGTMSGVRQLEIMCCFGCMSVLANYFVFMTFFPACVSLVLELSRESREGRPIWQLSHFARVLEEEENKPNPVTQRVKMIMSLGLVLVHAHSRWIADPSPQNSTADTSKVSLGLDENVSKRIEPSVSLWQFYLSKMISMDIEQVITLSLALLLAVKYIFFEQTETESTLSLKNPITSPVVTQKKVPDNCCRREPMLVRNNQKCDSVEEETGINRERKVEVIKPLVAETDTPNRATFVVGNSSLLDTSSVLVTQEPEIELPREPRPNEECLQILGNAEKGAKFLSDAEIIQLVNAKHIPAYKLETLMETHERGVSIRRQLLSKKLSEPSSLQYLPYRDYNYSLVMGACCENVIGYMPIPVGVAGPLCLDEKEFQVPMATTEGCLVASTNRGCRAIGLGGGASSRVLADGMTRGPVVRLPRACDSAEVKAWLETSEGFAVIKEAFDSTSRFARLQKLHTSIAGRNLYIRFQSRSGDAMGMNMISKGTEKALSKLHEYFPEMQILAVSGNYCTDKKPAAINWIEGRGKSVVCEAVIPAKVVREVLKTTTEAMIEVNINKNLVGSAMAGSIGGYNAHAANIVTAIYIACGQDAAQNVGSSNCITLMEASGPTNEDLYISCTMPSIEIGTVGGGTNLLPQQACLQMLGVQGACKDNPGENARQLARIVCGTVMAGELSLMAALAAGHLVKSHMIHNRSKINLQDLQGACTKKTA
Details: species or system Escherichia coli.

Experiment [2] concerns the target T3, Muscarinic acetylcholine receptor M2 (Homo sapiens, UniProt P08172).
T3 sequence (P08172 whole entry): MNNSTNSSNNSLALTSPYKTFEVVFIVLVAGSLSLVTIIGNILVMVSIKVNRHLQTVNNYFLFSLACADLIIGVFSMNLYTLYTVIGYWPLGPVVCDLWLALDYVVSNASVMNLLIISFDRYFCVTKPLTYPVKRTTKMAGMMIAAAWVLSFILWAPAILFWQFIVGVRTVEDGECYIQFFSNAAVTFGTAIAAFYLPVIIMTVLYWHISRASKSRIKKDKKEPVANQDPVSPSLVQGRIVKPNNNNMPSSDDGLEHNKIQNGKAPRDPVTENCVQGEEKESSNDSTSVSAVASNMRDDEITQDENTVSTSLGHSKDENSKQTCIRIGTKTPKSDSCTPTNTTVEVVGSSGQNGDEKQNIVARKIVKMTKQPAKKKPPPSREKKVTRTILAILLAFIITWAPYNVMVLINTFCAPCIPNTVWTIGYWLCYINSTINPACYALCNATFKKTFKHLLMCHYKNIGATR
The class given is cell membranes, CHO-K1, Membrane.

The target of experiment [3] is T4, Neuropeptide Y receptor type 1 (Homo sapiens, UniProt P25929).
T4 sequence (P25929 whole entry): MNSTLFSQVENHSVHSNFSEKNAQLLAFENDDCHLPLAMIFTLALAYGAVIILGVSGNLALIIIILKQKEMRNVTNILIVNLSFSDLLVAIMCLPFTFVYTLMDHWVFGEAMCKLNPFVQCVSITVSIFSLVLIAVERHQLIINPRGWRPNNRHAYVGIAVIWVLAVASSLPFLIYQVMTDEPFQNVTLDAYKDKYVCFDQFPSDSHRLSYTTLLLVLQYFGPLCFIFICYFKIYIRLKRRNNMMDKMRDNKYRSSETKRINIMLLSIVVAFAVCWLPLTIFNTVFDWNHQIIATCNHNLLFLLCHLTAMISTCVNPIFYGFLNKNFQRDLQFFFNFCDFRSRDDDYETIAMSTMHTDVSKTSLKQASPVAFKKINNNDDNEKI
The class given is cell membranes, Membrane. Particulars: sk-n-mc.

For experiment [4], the target named is T5, Polyunsaturated fatty acid lipoxygenase ALOX15 (Oryctolagus cuniculus, UniProt P12530).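 Note: inhibition of 15-lipoxygenase enzyme activity measured with linoleic acid as the substrate.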
T5 sequence (P12530 whole entry): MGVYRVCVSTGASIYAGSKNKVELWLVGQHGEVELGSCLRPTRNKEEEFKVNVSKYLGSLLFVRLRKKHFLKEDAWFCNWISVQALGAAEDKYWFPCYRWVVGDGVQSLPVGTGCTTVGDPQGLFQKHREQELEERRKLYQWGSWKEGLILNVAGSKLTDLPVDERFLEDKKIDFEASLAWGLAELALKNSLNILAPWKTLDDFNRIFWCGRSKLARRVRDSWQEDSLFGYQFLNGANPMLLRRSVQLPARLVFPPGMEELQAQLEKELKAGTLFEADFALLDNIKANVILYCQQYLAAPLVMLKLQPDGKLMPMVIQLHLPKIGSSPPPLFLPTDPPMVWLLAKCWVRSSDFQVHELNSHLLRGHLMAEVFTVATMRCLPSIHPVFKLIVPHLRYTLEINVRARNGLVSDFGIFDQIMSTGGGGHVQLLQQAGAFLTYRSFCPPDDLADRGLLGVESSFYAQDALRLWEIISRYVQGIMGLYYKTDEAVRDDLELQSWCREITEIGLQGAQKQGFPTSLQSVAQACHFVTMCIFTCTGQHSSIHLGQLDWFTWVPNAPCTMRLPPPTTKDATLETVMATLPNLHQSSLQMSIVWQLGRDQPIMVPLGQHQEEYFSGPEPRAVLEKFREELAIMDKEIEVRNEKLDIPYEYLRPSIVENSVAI
The experiment is described as follows: biochemical. Particulars: reticulocytes. The class given is tissue-based, Reticulocytes.

In experiment [5] the target is Aldo-keto reductase family 1 member B1 (Rattus norvegicus, UniProt P07943). The experiment is described as follows: biochemical. The class given is tissue-based, Lens of camera-type eye.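 Note: inhibition of aldose reductase enzyme activity, measured with DL-glyceraldehyde as the substrate.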
Note: in other assays of this panel Not Active means under 50% inhibition at 10 µM.

For `CCCCC(=O)N(Cc1ccc(-c2ccccc2-c2nnn[nH]2)cc1)[C@H](C(=O)O)C(C)C`, the IC50 result (on B2 bradykinin receptor; in experiment [1]; in experiment [2] (cho-k1); in experiment [3]; in experiment [4]; in experiment [5]) was “Not Active” in each case.

Turning to `O=C(O)COc1ccc(C(=O)c2cccs2)c(Cl)c1Cl`, the half-inhibitory concentration (IC50) result is “Not Active” against B2 bradykinin receptor; “Not Active” in experiment [1]; “Not Active” in experiment [2] (cho-k1); “Not Active” in experiment [3]; “Not Active” in experiment [4]; 3.21 µM in experiment [5] (read-out: IC50).

Take `CN1[C@@H]2CC[C@H]1C[C@@H](OC(c1ccccc1)c1ccccc1)C2` [BENZTROPINE]: the IC50 result (on B2 bradykinin receptor; in experiment [1]; in experiment [3]; in experiment [4]; in experiment [5]) was “Not Active” each time.

`C[C@@](Cc1ccc(O)c(O)c1)(NN)C(=O)O.O` [CARBIDOPA]: the IC50 entry (at B2 bradykinin receptor; in experiment [1]; in experiment [2] (cho-k1); in experiment [3]; in experiment [4]; in experiment [5]) was “Not Active” each time.

Regarding `CN1CCN(C2=Nc3cc(Cl)ccc3Nc3ccccc32)CC1` [CLOZAPINE], the concentration for half-maximal inhibition (IC50) entry (against B2 bradykinin receptor; in experiment [1]; in experiment [3]; in experiment [4]; in experiment [5]) was “Not Active” each time.

On to `CC(C)NC[C@@H](O)COc1cccc2ccccc12` [DEXPROPRANOLOL], for which the IC50 entry (at B2 bradykinin receptor; in experiment [1]; in experiment [2] (cho-k1); in experiment [3]; in experiment [4]; in experiment [5]) was “Not Active” each time.

Regarding `CC(C)NC[C@H](O)COc1cccc2ccccc12` [LEVOPROPRANOLOL], the IC50 entry (against B2 bradykinin receptor; in experiment [1]; in experiment [2] (cho-k1); in experiment [3]; in experiment [4]; in experiment [5]) was “Not Active” throughout.

Regarding `O=C(O)CCCCC1CCSS1` (stereo not drawn) [LIPOIC ACID, ALPHA], the IC50 result (at B2 bradykinin receptor; in experiment [1]; in experiment [2] (cho-k1); in experiment [3]; in experiment [4]; in experiment [5]) was “Not Active” each time.

Regarding `CN(C)C(=O)C(CCN1CCC(O)(c2ccc(Cl)cc2)CC1)(c1ccccc1)c1ccccc1` [LOPERAMIDE], the half-inhibitory concentration (IC50) entry (at B2 bradykinin receptor; in experiment [1]; in experiment [2] (cho-k1); in experiment [3]; in experiment [4]; in experiment [5]) was “Not Active” each time.

For the compound `Clc1ccc(COC(Cn2ccnc2)c2ccc(Cl)cc2Cl)c(Cl)c1` (stereo not given) [MICONAZOLE], the 50% inhibitory concentration (IC50) result at B2 bradykinin receptor was “Not Active”; in experiment [1] it was “Not Active”; in experiment [2] (read-out: IC50), 4.34 µM; in experiment [3], “Not Active”; in experiment [4], “Not Active”; in experiment [5], “Not Active”. In addition, the Ki in experiment [2] (read-out: Ki) is 1540 nM.

`Oc1ccc2c3c1O[C@H]1[C@@H](O)CC[C@@]4(O)[C@@H](C2)N(CC2CCC2)CC[C@]314` [NALBUPHINE]: the IC50 result (at B2 bradykinin receptor; in experiment [1]; in experiment [2] (cho-k1); in experiment [3]; in experiment [4]; in experiment [5]) was “Not Active” in each case.

On to `C[C@]12C=CC(=O)C=C1CC[C@@H]1[C@@H]2C(=O)C[C@@]2(C)[C@H]1CC[C@]2(O)C(=O)CO` [PREDNISONE], for which the IC50 result (against B2 bradykinin receptor; in experiment [1]; in experiment [2] (cho-k1); in experiment [3]; in experiment [4]; in experiment [5]) was “Not Active” in each case.

On to `OCCOCCN1CCN(C2=Nc3ccccc3Sc3ccccc32)CC1` [QUETIAPINE], for which the IC50 result (against B2 bradykinin receptor; in experiment [1]; in experiment [3]; in experiment [4]; in experiment [5]) was “Not Active” throughout.

`COC(=O)[C@H]1[C@H]2C[C@@H]3c4[nH]c5cc(OC)ccc5c4CCN3C[C@H]2C[C@@H](OC(=O)c2cc(OC)c(OC)c(OC)c2)[C@@H]1OC` [RESERPINE]: the IC50 result (at B2 bradykinin receptor; in experiment [1]; in experiment [2] (cho-k1); in experiment [3]; in experiment [4]; in experiment [5]) was “Not Active” each time.

As for `O=C(O)c1ccccc1O` [SALICYLIC ACID], the IC50 entry (at B2 bradykinin receptor; in experiment [1]; in experiment [2] (cho-k1); in experiment [3]; in experiment [4]; in experiment [5]) was “Not Active” throughout.

For `C[S+]([O-])c1ccc(-c2nc(-c3ccncc3)c(-c3ccc(F)cc3)[nH]2)cc1` (stereo not given) [SB-203580], the IC50 entry (against B2 bradykinin receptor; in experiment [1]; in experiment [2] (cho-k1); in experiment [3]; in experiment [4]; in experiment [5]) was “Not Active” throughout.

With `CC1CCC(NC(=O)N(CCCl)N=O)CC1` (stereo not given) [SEMUSTINE], the IC50 entry (against B2 bradykinin receptor; in experiment [1]; in experiment [2] (cho-k1); in experiment [3]; in experiment [4]; in experiment [5]) was “Not Active” in each case.

Broadly, the IC50 is the concentration at which inhibition is half-maximal. As usually defined, the Ki is the dissociation constant of the complex between target and ligand, obtained from inhibition or displacement.
